pIC50: −log10 of the molar value. Read-outs that look alike come from different tables or passages of the source.
What was measured:
[1] = biological target: T1, Ba/F3-FL-TYK2-P760L cells (Homo sapiens, UniProt P29597, P760L, cells depend on it); test: Anti-proliferative assay, Ba/F3-FL-TYK2-P760L cells (Cell-Titer Glo); assay type: cell-based; settings: 72 h, read-out: BaF3-FL-T2P760L IC50
T1 construct: BaF3-FL-T2P760L (nM)
In short: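 Ba/F3 cells made IL-3-independent by TEL-fused or full-length mutant JAK-family kinases, seeded at 2000/well and dosed after 24 h with 9 three-fold dilutions topping at 20 μM. Viability after 72 h at 37 °C, 5% CO2 by Cell-Titer Glo ATP luminescence.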

[2] = Plasma protein binding by equilibrium dialysis; assay type: in vitro ADME; settings: human plasma, equilibrium dialysis 5 hours at 37° C.; read-out: % Bound (human) (converted)
Description: Plasma Protein Binding by Equilibrium Dialysis
Aliquots of test compound stock solution and warfarin stock solution were spiked into plasma to give the matrix solutions with theoretical concentrations of test compound at 0.2 and 2 μM or warfarin at 2 μM. Immediately transfer 50 μL of the spiked plasma solution suspension to a 96-well plate to act as T=0 control sample. Assemble the dialysis set up following the manufacturer's instructions. Load cells with 150 μL of plasma sample and dialyzed against equal volume of dialysis buffer (PBS). The assay is performed in duplicate. Cover the unit with gas permeable lid and incubate for 5 hours at 37° C. at 100 rpm in a constant temperature shaking box. At the end of incubation, remove lid and pipette 50 μL of post-dialysis samples from both buffer and plasma solution chambers into separated 96-well plate for analysis, respectively. Add 50 μL of plasma solution to the buffer samples, and an equal volume of PBS to the collected plasma solution samples. Shake the plate at 1000 rpm for 2 minutes and add 600 μL of 50% ACN/MeOH containing an appropriate internal standard (IS) to precipitate protein and release compound. Vortex at 1000 rpm for 10 minutes. Centrifuge for 10 minutes at 4000 rpm. Then transfer 75 μL of the supernatant to new 96-well plates for analysis. Add 150 μL of distilled water to each sample and mix for analysis by LC-MS/MS.
The free rate (% Unbound), binding rate (% Bound), and recovery rate (% Recovery) of the compound are calculated as follows: […]

[3] = Hepatocytes metabolic stability assay; assay type: in vitro ADME; settings: cryopreserved hepatocytes, human hepatocytes, 1.0×10^6 cells/mL
In short: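 Cryopreserved hepatocytes (1.0×10^6 cells/mL final) were incubated with test compound at 1 μM at 37 °C and sampled at 0, 15, 30, 60 and 120 min, with acetonitrile quench and LC-MS/MS. k came from log-linear % remaining versus time, giving T1/2 and CLint.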

[4] = biological target: T2, JAK2 (Homo sapiens, UniProt O60674); test: JAK2 kinase activity, microfluidic assay (Caliper EZ Reader II); assay type: biochemical; settings: JAK2 0.125 nM, 1 mM ATP
T2 construct: purchased Carna Biosciences
Description: (§1) Testing for JAK1, JAK2 and TYK2 Kinase Activities
(§2) JAK activity was determined in the reaction buffer 50 mM HEPES, 0.01% Brij35, 10 mM MgCl2, 2 mM DTT by a microfluidic assay. The phosphorylation of a FAM labeled peptide substrate was monitored in the Caliper EZ Reader II (Perkin Elmer). The assay condition for each batch of enzyme (Carna Biosciences) was optimized to obtain 10% conversion rate of peptide substrate.
(§3) The test compounds were dissolved in DMSO to a stock concentration of 10 mM. Three-fold serially diluted compounds with top concentration of 5 μM were pre-incubated with JAK1, JAK2 or TYK2 for 10 min at ambient temperature. The final DMSO concentration of assay mixture was 1%. […] The reaction was stopped by adding 50 mM EDTA.
(§4) The percent inhibition was calculated by the following formula:
(§5) [formula] • wherein • Conversion %_max=the conversion rate in the positive well without addition of compound • Conversion %_sample=the conversion rate of test compounds • Conversion %_min=the conversion rate in the well without addition of enzyme
(§6) The dose-response (percent inhibition) curve was plotted and IC50 values were determined by GraphPad software.

[5] = biological target: T3, JAK1 (Homo sapiens, UniProt P23458); test: JAK1 kinase activity, microfluidic assay (Caliper EZ Reader II); assay type: biochemical; settings: JAK1 5 nM, 1 mM ATP
T3 construct: purchased Carna Biosciences
Description: as §1, §2, §3, §4, §5, §6

[6] = biological target: T4, TYK2 (Homo sapiens, UniProt P29597); test: TYK2 kinase activity, microfluidic assay (Caliper EZ Reader II); assay type: biochemical; settings: TYK2 1 nM, 1 mM ATP
T4 construct: purchased Carna Biosciences
Description: as §1, §2, §3, §4, §5, §6

[7] = biological target: T5, TYK2-JH2 domain (Homo sapiens, UniProt P29597); test: Binding activity test for JH2 domain of TYK2 (Tb-antibody/tracer FRET); settings: for JAK1/TYK2 selectivity: ratio JAK1-JH2 IC50 / TYK2-JH2 IC50
T5 construct: IC50 on JH2 domain activity (nM)
In short: (§7)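 Compounds tested as 11-point 3-fold serial dilutions against the JH2 domain in a Tb-antibody/tracer FRET binding format. Plates incubated 60 min at 25° C, then overnight at 4° C, before FRET reading.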

[8] = biological target: T6, JAK1-JH2 domain (Homo sapiens, UniProt P23458); test: Binding activity test for JH2 domain of JAK1 (Tb-antibody/tracer FRET)
T6 construct: IC50 on JH2 domain activity (nM)
In short: as §7

[9] = test system: pSTAT1; test: Phosphorylation inhibition of STAT in human whole blood, IFN-alpha stimulated (flow cytometry); assay type: cell-based; settings: 20 min; human whole blood, IFN-alpha 20 mins, CD3 cells; read-out: IC50 on pSTAT1 inhibition in h WB
Description: Phosphorylation Inhibition of STAT in Human PBMC and Human Whole Blood Testing:
The inhibitory potential of test articles in human PBMC and human whole blood assay was evaluated by the method of flow cytometry.
IFN-alpha will activate JAK1 and TYK2 kinase in T cells by binding to IFN receptors, and then lead to phosphorylation of STAT1 and STAT2. The phosphorylated STAT1 enter nuclear and promote transcription and expression of IFN-gamma. To evaluate the efficacy of TYK2i in T cells, freshly prepared human PBMC or freshly collected human whole blood will be stimulated with certain unit of human IFN-alpha (Universal Type I IFN(1MU), R&D, 11200-2) for 20 mins in incubator. After stimulation, fix cells with Phosflow™ Fix Buffer I (BD, 557870), and then collect fixed cells by centrifugation (500 g, 8 min). Wash cells once with pre-cooled PBS, and then permeabilize cells with cold Perm Buffer III buffer (BD, 558050) for 45 mins on ice. Collect cells by centrifugation (600 g, 8 min) and washed twice with cold PBS. Stain cells with anti-human CD3 (FITC Mouse Anti-Human CD3, BD, 555332) and anti-pSTAT1_Y701(Alexa Fluor 647 Mouse Anti-Stat1 (pY701), BD, 612597) antibodies. Detect pSTAT1 by flow cytometry (CytoFlex S) and analyze data with FlowJo and GraphPad Prism 8 software. IC50 values of test articles were determined using 4-parameter logistic equation.

[10] = Microsomal metabolic stability assay; assay type: in vitro ADME; settings: pH 7.4, 0.5 mg/mL protein, 1 μM compound
In short: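 Test article at 1 μM with 0.5 mg/mL microsomal protein and 2 mM NADPH, in 100 mM potassium phosphate pH 7.4 with 1.0 mM EDTA at 37 °C. Sampled at 0–45 min and quantified by LC/MS/MS. T1/2 from the slope of ln % remaining vs time.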

[11] = dog liver microsomes, read-out: Dog LM Clint
[12] = dog liver microsomes, read-out: Dog LM T½
[13] = human liver microsomes, read-out: Human LM Clint
[14] = human liver microsomes, read-out: Human LM T½
[15] = rat liver microsomes, read-out: Rat LM Clint
[16] = rat liver microsomes, read-out: Rat LM T½

T1 sequence (P29597 whole entry P760L): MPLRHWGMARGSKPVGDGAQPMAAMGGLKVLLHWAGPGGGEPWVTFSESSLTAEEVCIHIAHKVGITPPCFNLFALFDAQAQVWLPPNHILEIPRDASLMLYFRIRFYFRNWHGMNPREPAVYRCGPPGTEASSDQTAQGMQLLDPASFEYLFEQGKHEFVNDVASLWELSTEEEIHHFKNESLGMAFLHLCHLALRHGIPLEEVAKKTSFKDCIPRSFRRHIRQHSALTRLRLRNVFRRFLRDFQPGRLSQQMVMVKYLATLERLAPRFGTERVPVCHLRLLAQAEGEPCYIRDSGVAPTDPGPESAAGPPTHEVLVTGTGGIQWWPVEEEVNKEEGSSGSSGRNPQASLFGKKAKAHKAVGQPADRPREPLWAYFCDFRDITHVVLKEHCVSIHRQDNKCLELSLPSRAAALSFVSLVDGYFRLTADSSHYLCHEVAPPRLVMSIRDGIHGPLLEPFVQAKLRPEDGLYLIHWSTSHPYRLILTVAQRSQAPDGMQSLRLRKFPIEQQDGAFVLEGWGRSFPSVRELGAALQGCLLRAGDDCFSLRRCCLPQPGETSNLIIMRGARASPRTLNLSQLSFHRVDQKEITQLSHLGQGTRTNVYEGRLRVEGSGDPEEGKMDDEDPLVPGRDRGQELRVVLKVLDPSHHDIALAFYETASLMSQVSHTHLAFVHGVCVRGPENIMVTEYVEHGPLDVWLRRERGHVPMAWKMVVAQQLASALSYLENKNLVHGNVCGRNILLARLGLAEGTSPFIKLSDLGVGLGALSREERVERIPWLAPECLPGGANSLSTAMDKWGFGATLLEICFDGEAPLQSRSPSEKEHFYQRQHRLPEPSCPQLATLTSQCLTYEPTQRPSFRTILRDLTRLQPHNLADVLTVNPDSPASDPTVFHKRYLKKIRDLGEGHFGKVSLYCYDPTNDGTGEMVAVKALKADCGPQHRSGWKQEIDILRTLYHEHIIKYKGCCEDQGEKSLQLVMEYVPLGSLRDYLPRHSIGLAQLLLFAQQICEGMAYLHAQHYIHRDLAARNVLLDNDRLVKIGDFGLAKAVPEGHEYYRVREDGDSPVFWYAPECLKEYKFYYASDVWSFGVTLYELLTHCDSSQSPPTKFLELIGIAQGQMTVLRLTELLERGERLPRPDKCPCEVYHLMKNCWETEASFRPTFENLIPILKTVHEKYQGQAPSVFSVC
T2 sequence (O60674 whole entry): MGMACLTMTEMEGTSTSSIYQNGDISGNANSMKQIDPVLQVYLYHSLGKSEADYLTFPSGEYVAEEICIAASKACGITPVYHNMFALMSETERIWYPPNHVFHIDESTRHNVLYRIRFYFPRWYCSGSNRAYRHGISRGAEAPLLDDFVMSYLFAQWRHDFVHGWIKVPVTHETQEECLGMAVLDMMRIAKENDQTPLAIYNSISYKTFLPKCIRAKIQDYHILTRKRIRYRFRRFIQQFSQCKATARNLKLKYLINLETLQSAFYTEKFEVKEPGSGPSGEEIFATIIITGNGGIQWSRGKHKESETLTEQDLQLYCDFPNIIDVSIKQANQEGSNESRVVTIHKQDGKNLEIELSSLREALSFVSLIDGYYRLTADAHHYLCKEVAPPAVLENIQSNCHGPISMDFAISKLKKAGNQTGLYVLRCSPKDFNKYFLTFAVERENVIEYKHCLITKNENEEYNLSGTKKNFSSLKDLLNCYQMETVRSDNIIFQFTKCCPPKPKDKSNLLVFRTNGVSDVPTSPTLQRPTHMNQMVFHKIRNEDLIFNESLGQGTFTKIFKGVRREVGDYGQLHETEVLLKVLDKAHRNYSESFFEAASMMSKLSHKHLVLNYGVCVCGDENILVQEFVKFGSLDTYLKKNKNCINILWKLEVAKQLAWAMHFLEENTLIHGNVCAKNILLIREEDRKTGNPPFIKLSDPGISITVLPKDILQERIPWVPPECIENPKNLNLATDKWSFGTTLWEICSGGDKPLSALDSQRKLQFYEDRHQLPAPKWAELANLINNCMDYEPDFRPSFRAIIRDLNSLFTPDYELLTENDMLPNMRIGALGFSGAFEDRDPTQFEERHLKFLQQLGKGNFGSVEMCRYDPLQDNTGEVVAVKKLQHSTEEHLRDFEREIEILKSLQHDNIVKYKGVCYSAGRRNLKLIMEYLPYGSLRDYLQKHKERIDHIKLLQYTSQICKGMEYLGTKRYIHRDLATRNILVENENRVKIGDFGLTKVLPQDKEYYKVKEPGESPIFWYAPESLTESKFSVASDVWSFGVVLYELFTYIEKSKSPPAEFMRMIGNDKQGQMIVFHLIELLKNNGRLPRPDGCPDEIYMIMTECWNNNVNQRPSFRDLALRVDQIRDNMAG
T5 sequence (P29597 589-875 limits assumed): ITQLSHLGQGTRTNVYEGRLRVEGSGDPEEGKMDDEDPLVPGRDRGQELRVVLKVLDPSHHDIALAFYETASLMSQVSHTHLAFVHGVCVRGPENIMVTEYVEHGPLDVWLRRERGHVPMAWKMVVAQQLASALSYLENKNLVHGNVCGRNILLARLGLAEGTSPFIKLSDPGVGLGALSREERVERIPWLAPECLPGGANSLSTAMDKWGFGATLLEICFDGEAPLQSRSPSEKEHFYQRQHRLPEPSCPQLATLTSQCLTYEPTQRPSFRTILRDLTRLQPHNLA
T4 sequence (P29597 whole entry): as the sequence (P29597 whole entry P760L) above, with L760P counted along it
T3 sequence (P23458 whole entry): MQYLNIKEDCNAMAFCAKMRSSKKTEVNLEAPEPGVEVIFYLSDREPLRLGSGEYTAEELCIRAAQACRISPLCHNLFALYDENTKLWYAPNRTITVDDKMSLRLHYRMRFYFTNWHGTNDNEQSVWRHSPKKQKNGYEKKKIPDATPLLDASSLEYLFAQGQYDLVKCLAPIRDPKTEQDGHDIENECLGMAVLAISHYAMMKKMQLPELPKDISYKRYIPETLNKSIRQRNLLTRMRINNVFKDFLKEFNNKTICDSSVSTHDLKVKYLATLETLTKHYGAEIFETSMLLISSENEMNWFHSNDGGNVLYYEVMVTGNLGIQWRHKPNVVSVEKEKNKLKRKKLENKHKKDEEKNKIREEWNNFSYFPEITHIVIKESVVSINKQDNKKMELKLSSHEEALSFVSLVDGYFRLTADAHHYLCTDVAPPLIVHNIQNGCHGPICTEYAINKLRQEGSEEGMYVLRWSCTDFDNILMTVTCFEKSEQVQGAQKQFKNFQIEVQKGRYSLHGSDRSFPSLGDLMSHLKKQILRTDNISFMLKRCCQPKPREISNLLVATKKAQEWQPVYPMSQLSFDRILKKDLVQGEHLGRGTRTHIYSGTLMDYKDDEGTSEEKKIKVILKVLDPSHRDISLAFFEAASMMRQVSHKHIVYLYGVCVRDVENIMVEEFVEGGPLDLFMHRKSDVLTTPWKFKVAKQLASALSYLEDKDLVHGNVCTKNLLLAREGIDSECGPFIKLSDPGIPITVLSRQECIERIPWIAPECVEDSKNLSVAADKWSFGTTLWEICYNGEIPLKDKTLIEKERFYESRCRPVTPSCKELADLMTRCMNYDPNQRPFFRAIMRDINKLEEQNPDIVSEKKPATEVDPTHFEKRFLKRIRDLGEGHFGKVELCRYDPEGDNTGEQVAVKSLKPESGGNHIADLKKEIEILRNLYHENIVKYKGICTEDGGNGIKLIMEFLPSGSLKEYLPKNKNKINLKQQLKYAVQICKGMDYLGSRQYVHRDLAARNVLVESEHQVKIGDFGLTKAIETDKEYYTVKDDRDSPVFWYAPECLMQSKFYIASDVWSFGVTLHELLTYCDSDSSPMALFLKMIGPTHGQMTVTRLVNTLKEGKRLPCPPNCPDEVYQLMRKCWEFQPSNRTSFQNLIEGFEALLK
T6 sequence (P23458 583-855 limits assumed): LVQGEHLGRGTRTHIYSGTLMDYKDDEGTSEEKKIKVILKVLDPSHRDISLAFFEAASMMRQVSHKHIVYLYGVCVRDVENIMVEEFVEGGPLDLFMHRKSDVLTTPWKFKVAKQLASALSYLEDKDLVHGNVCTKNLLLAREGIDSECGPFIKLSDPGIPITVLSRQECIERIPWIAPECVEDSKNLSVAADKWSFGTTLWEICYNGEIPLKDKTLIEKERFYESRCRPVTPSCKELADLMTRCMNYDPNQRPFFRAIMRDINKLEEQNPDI

[2H]C([2H])([2H])NC(=O)c1cnc(NC(=O)C2CC2)cc1Nc1ccc2cnn(C([2H])([2H])C([2H])([2H])[2H])c2c1OC([2H])([2H])[2H] [Example 134, 6-(Cyclopropanecarboxamido)-4-((1-(ethyl-d5)-7-(methoxy-d3)-1H-indazol-6-yl)amino)-N-(methyl-d3)nicotinamide]
GI50 [1]: 0.0614 µM
fraction unbound at 5 h [2]: 0.049
CLint scaled at 1 μM ([3]; read-out: Human hepatocyte Clint(liver)): 18 mL/min/kg
half-life at 1 μM ([3]; read-out: Human hepatocyte stability T1/2): 1.64 h

CCN1CCc2scc(Nc3cc(NC(=O)C4CC4)ncc3C(=O)NC)c2C1=O [Example 39, 6-(Cyclopropanecarboxamido)-4-((5-ethyl-4-oxo-4,5,6,7-tetrahydrothieno [3,2-c]pyridin-3-yl)amino)-N-methyl-nicotinamide]
GI50 [1]: 0.0881 µM
pIC50 [4]: < 5.30
pIC50 [5]: < 5.30
pIC50 [6]: < 5.30

CNC(=O)c1nnc(NC(=O)C2CC2)cc1Nc1cccc2ccn(C)c(=O)c12 [Example 24, 6-(Cyclopropanecarboxamido)-N-methyl-4-((2-methyl-1-oxo-1,2-dihydroisoquinolin-8-yl)amino)pyridazine-3-carboxamide]
GI50 [1]: 1.39 µM
pIC50 [6]: < 5.30

[2H]C([2H])([2H])NC(=O)c1cnc(NC(=O)C2CC2)cc1Nc1ccn2ncc(COC)c2c1OC [Example 226, 6-(Cyclopropanecarboxamido)-4-((4-methoxy-3-(methoxymethyl)pyrazolo[1,5-a]pyridin-5-yl)amino)-N-(methyl-d3)nicotinamide]
GI50 [1]: 0.221 µM
pIC50 [7]: 8.84
JAK1/TYK2 selectivity [7]: 38.8
pIC50 [8]: 7.25
fraction unbound at 5 h [2]: 0.126

CCn1ncc2ccc(Nc3cc(NC(=O)C4CC4)ncc3C(=O)NC)c(OC)c21 [Example 228, 6-(Cyclopropanecarboxamido)-4-((1-ethyl-7-methoxy-1H-indazol-6-yl)amino)-N-methylnicotinamide]
GI50 [1]: 0.0293 µM
pIC50 [7]: 9.54
JAK1/TYK2 selectivity [7]: 22.5
pIC50 [8]: 8.19
fraction unbound at 5 h [2]: 0.04
pIC50 [9]: 6.61

[2H]C([2H])([2H])NC(=O)c1cnc(Nc2cccc(C#N)n2)nc1Nc1cccc(-c2ncn(C)n2)c1OC [Example 21, 2-[(6-Cyano-2-pyridyl)amino]-4-[2-methoxy-3-(1-methyl-1,2,4-triazol-3-yl)anilino]-N-(trideuteriomethyl)pyrimidine-5-carboxamide]
GI50 [1]: 0.0775 µM
microsomal CLint at 1 μM [10, 11]: 26.8 µL/min/mg
half-life at 1 μM [10, 12]: 0.861 h
microsomal CLint at 1 μM [10, 13]: 6.42 µL/min/mg
half-life at 1 μM [10, 14]: 3.6 h
microsomal CLint at 1 μM [10, 15]: 7.4 µL/min/mg
half-life at 1 μM [10, 16]: 3.12 h
pIC50 [6]: < 5.30

CNC(=O)c1cnc2nc1Nc1cc(cc(-c3ncn(C)n3)c1OC)COCc1cccc(c1)N2 [Example 33, 10-Methoxy-N-methyl-11-(1-methyl-1,2,4-triazol-3-yl)-15-oxa-2,4,8,23-tetrazatetracyclo[15.3.1.13,7.19,13]tricosa-1(21),3(23),4,6,9,11,13(22),17,19-nonaene-6-carboxamide]
GI50 [1]: 0.499 µM
microsomal CLint at 1 μM [10, 11]: 14.5 µL/min/mg
half-life at 1 μM [10, 12]: 3.97 h
microsomal CLint at 1 μM [10, 13]: 26.2 µL/min/mg
half-life at 1 μM [10, 14]: 2.2 h
microsomal CLint at 1 μM [10, 15]: 21.8 µL/min/mg
half-life at 1 μM [10, 16]: 2.65 h
pIC50 [4]: < 5.30
pIC50 [5]: < 5.30
pIC50 [6]: < 5.30

CNC(=O)c1cnc2nc1Nc1cc(cc(-c3ncn(C)n3)c1OC)CN(C)Cc1cccc(c1)N2 [Example 22, 10-Methoxy-N,15-dimethyl-11-(1-methyl-1,2,4-triazol-3-yl)-2,4,8,15,23-pentazatetracyclo[15.3.1.13,7.19,13]tricosa-1(21),3(23),4,6,9,11,13(22),17,19-nonaene-6-carboxamide]
GI50 [1]: 0.861 µM
pIC50 [4]: < 5.30
pIC50 [5]: < 5.30
pIC50 [6]: < 5.30

Source: patent US20250115597A1, “TYK2 INHIBITORS AND COMPOSITIONS AND METHODS THEREOF” (LYNK PHARMACEUTICALS CO. LTD., priority 2021, published 2025)
